{"source": "ChEMBL document CHEMBL1157481", "about": "“Microwave-assisted synthesis of 5-aminopyrazol-4-yl ketones and the p38(MAPK) inhibitor RO3201195 for study in Werner syndrome cells” (Bioorg Med Chem Lett, 2008)", "target": "Mitogen-activated protein kinase 9 (Homo sapiens) (UniProt P45984)", "sequence (P45984 whole entry, looked up)": "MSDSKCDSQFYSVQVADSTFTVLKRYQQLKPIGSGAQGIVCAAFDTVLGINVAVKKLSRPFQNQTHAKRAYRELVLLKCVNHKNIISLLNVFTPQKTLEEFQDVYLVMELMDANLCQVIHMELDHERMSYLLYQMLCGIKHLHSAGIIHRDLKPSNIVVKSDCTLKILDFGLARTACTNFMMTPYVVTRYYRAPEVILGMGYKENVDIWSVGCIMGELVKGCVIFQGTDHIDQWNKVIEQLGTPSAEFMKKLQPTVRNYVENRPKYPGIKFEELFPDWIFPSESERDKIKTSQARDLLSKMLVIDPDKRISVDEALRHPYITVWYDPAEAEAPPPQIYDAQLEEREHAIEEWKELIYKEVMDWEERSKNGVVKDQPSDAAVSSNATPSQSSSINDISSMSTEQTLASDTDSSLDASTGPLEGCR", "experiment": "Inhibition of JNK2 in hTERT-immortalized human HCA2 cells assessed as c-jun phosphorylation upto 50 uM by ELISA in presence of anisomycin", "assay_type": "cell-based", "note": "The source made the active and inactive calls. The rule behind the calls is not given here."}
{"compound": "Nc1c(C(=O)c2cccc(OC[C@@H](O)CO)c2)cnn1-c1ccc(F)cc1", "values": [{"measurement": "Activity", "result": "inactive"}]}
